Experimental findings from US9062028B2, “Bicyclic nitrogen containing heteroaryl TGR5 receptor modulators” (Bristol-Myers Squibb Company, priority 2011, dated 2015) are described below.

Structures can show the parent of a compound that is named as a salt.

Broadly, the EC50 is the concentration at which the effect is half-maximal.

The target in the assay is T1, recombinant human TGR5 (Homo sapiens, UniProt Q8TDU6).
T1 construct: expressed in transfected cells
T1 sequence (Q8TDU6 1-330): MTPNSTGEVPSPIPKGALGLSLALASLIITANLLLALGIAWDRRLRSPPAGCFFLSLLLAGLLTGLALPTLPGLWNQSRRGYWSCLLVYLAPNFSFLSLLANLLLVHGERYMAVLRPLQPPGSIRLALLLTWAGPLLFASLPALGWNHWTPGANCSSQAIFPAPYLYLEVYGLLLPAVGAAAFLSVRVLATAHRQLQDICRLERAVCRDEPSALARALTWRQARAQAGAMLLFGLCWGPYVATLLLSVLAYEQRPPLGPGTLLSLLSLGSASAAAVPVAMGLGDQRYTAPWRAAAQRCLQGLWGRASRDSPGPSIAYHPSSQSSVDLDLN
Briefly: cAMP assay (cAMP accumulation, HTRF) in CHOK1 cells stably expressing TGR5. The note with it: CHOK1 cells stably expressing human TGR5, 30 minutes at RT, 1% DMSO. In kind it is cell-based. The protocol:
The in vitro modulation of recombinant human TGR5 was determined as follows.
A human TGR5 expression construct of human TGR5 was integrated into the genome of a CHOK1 cell line (Invitrogen). Once a stable CHOK1 cell line was generated, the cells were incubated for 5-10 minutes in culture medium consisting of F-12 (Invitrogen#11765-047) supplemented with 10% fetal bovine serum.
On the day of the cAMP accumulation assay, cells stably expressing the […] TGR5 construct were centrifuged at 1000 rpm for 5 minutes. The medium was aspirated and the cells were resuspended in 5 mL of assay buffer (phosphate-buffered saline with Ca^2+ and Mg^2+, Invitrogen#14040). The cells were counted using 1:2 dilution and then adjusted to 0.4-0.5×10^6 cells/mL in assay buffer, if necessary. Isobutylmethylxanthine (IBMX, Sigma#I5879) was added via a 1:5000 dilution to make a 0.1 mM final concentration and then 10 μL of the media were transferred to each well of a 384 well poly-D-lysine coated solid white plate (BD #35-6661) pre-dotted with 100 nL of with the desired concentration of compound added from a concentrated stock dissolved in dimethyl sulfoxide (DMSO) to give a final concentration of 1% DMSO in the assay. The plates were covered and incubated for 30 minutes at RT. cAMP accumulation was measured using the CisBio homogeneous time resolved fluorescence (HTRF) assay kit (#62AM2PEC) following the manufacturer's protocol. Briefly, 5 μl each of the cAMP-HTRF fluorescence detection reagents were added to each well, and the samples were incubated for at least one hour at room temperature. Fluorescence was excited at 320 nm and measured at 665 and 620 nm using the Envision instrument (Perkin Elmer), the fluorescence ratio of 665/620 was calculated and converted to nanomolar concentrations of cAMP in each well by interpolation from a cAMP standard curve. The concentration-response curves and EC50 values were calculated with a four parameter logistic curve fit equation utilizing Excel/XLfit software (Microsoft and IDBS). The EC50 value was calculated as the concentration of agonist which increased the cAMP concentration to a value halfway between the baseline and the maximum.
(In general: Cyclic AMP is a second messenger, typically raised through Gs and lowered through Gi signalling.)
In the case of `Cc1c(Cl)cccc1OCCOC(=O)N1C[C@@H]2C[C@@H]2c2c(-c3cnn(Cc4cc(C(=O)NC(CNS(C)(=O)=O)C(=O)O)ccc4Cl)c3)cccc21` (stereo partly drawn) [Example 685, 2-(4-Chloro-3-((4-((1aR,7bS)-3-((2-(3-chloro-2-methylphenoxy)ethoxy)carbonyl)-1a,2,3,7b-tetrahydro-1H-cyclopropa[c]quinolin-7-yl)-1H-pyrazol-1-yl)methyl)benzamido)-3-(methylsulfonamido)propanoic acid], the EC50 stood at 49 nM.

As to `Cc1cccc(OCCOC(=O)N2CCOc3c(-c4cnn(Cc5cccc(C(=O)O)c5)c4)cccc32)c1C` [Example 29, 3-((4-(4-((2-(2,3-Dimethylphenoxy)ethoxy)carbonyl)-3,4-dihydro-2H-benzo[b][1,4]oxazin-8-yl)-1H-pyrazol-1-yl)methyl)benzoic acid], the EC50 is 596 nM. As to `Cc1cccc(OCCCC(=O)N2CCCc3c(-c4cnn(C(C)(C)C(=O)NCCS(=O)(=O)O)c4)cccc32)c1C` [Example 146Y, 2-(2-(4-(1-(4-(2,3-Dimethylphenoxy)butanoyl)-1,2,3,4-tetrahydroquinolin-5-yl)-1H-pyrazol-1-yl)-2-methylpropanamido)ethanesulfonic acid], the EC50 was found to be 2860 nM. Turning to `Cc1c(Cl)cccc1OCCOC(=O)N1C[C@@H]2C[C@@H]2c2c(-c3cnn(Cc4cc(C(=O)N5C[C@@H](O)C[C@H]5C(=O)O)ccc4Cl)c3)cccc21` [Example 693, (2S,4S)-1-(4-Chloro-3-((4-((1aR,7bS)-3-((2-(3-chloro-2-methylphenoxy)ethoxy)carbonyl)-1a,2,3,7b-tetrahydro-1H-cyclopropa[c]quinolin-7-yl)-1H-pyrazol-1-yl)methyl)benzoyl)-4-hydroxypyrrolidine-2-carboxylic acid], the EC50 was found to be 188 nM. Regarding `Cc1c(Cl)cccc1OCCOC(=O)N1CC(F)(F)COc2c(-c3cnn(Cc4c(F)cc(C(=O)O)cc4Cl)c3)cccc21` [Example 336, 3-Chloro-4-((4-(5-((2-(3-chloro-2-methylphenoxy)ethoxy)carbonyl)-3,3-difluoro-2,3,4,5-tetrahydrobenzo[b][1,4]oxazepin-9-yl)-1H-pyrazol-1-yl)methyl)-5-fluorobenzoic acid], the EC50 worked out at 173 nM. As for `Cc1c(Cl)cccc1OCCCC(=O)N1C[C@@H]2C[C@@H]2c2c(-c3cnn(Cc4cccc(NC(=O)NCC(=O)O)c4)c3)cccc21` [Example 916, 2-(3-(3-((4-((1aR,7bS)-3-(4-(3-Chloro-2-methylphenoxy)butanoyl)-1a,2,3,7b-tetrahydro-1H-cyclopropa[c]quinolin-7-yl)-1H-pyrazol-1-yl)methyl)phenyl)ureido) acetic acid], the EC50 was found to be 37 nM. The same measure for `Cc1cccc(OCCCC(=O)N2CCCc3c(-c4cccc(COC(=O)N[C@@H](C)CC(=O)O)c4)cccc32)c1C` [Example 302, (S)-3-((3-(1-(4-(2,3-Dimethylphenoxy)butanoyl)-l,2,3,4-tetrahydroquinolin-5-yl)benzyloxy)carbonylamino) butanoic acid]: 593 nM; for `Cc1c(Cl)cccc1OCCOC(=O)N1CCSc2c(-c3cnn(Cc4cccc(C(=O)NCCS(=O)(=O)O)c4Cl)c3)cccc21` [Example 626, 2-(2-Chloro-3-((4-(4-((2-(3-chloro-2-methylphenoxy)ethoxy)carbonyl)-3,4-dihydro-2H-benzo[b][1,4]thiazin-8-yl)-1H-pyrazol-1-yl)metehyl)benzamido)ethanesulfonic acid]: 188 nM. On to `[2H]C([2H])(COC(=O)N1CCCOc2c(-c3cnn(Cc4c(F)cc(C(=O)O)cc4Cl)c3)cccc21)Oc1cccc(Cl)c1C` [Example 418, 3-Chloro-4-((4-(5-((2-(3-chloro-2-methylphenoxy)-2,2-dideuteroethoxy)carbonyl)-2,3,4,5-tetrahydrobenzo[b][1,4]oxazepin-9-yl)-1H-pyrazol-1-yl)methyl)-5-fluorobenzoic acid], for which the EC50 was 185 nM.

As for `Cc1cccc(OCCCC(=O)N2CCCc3c(-c4cccc(C(=O)NCCS(=O)(=O)O)c4)cccc32)c1C` [Example 148, 2-(3-(1-(4-(2,3-Dimethylphenoxy)butanoyl)-1,2,3,4-tetrahydroquinolin-5-yl)benzamido) ethanesulfonic acid], the EC50 worked out at 3310 nM. For the compound `Cc1cccc(OCCCC(=O)N2CC3CC3c3c(-c4cnn(Cc5c(F)cc(C(=O)NCCC(=O)O)cc5Cl)c4)cccc32)c1C` (stereo not drawn) [Example 69E, 3-(3-Chloro-4-((4-(3-(4-(2,3-dimethylphenoxy)butanoyl)-1a,2,3,7b-tetrahydro-1H-cyclopropa[c]quinolin-7-yl)-1H-pyrazol-1-yl)methyl)-5-fluorobenzamido)propanoic acid], the EC50 is 45 nM. To `Cc1cccc(OCCCC(=O)N2CCCc3c(-c4cnn(Cc5cccc(N(C)C(=O)N(C)CC[N+](C)(C)C)c5)c4)cccc32)c1C` [Example 472, 2-(3-(3-((4-(1-(4-(2,3-Dimethylphenoxy)butanoyl)-1,2,3,4-tetrahydroquinolin-5-yl)-1H-pyrazol-1-yl)methyl)phenyl)-1,3-dimethylureido)-N,N,N-trimethylethanaminium, TFA salt] belongs 1840 nM; to `Cc1c(Cl)cccc1OCCCC(=O)N1CCCOc2c(-c3cnn(Cc4c(F)cc(C(=O)NCC(=O)O)cc4Cl)c3)cccc21` [Example 786, 2-(3-Chloro-4-((4-(5-(4-(3-chloro-2-methylphenoxy)butanoyl)-2,3,4,5-tetrahydrobenzo[b][1,4]oxazepin-9-yl)-1H-pyrazol-1-yl)methyl)-5-fluorobenzamido)acetic acid], 173 nM. Consider `Cc1cccc(OCCCC(=O)N2CCSc3c(-c4cnn(Cc5c(F)cc(C(=O)NCS(=O)(=O)O)cc5Cl)c4)cccc32)c1C` [Example 578, (3-Chloro-4-((4-(4-(4-(2,3-dimethylphenoxy)butanoyl)-3,4-dihydro-2H-benzo[b][1,4]thiazin-8-yl)-1H-pyrazol-1-yl)methyl)-5-fluorobenzamido) methanesulfonic acid], for which the EC50 is 45 nM. For the compound `Cc1cccc(OCCCC(=O)N2CCCc3c(-c4cccc(COC(=O)NC(C)CC(=O)O)c4)cccc32)c1C` (stereo not drawn) [Example 275, 3-((3-(1-(4-(2,3-Dimethylphenoxy)butanoyl)-1,2,3,4-tetrahydroquinolin-5-yl)benzyloxy)carbonylamino) butanoic acid], the EC50 was 608 nM.

For the compound `Cc1cccc(OCCCC(=O)N2CCCc3c(-c4cnn(Cc5ccc[n+](CC(=O)O)c5)c4)cccc32)c1C` [Example 466, 1-(Carboxymethyl)-3-((4-(1-(4-(2,3-dimethylphenoxy)butanoyl)-1,2,3,4-tetrahydroquinolin-5-yl)-1H-pyrazol-1-yl)methyl)pyridinium, TFA salt], the EC50 came to 3930 nM. The same measure for `Cc1cccc(OCCCC(=O)N2C[C@@H]3C[C@@H]3c3c(-c4cnn(Cc5cccc(NC(=O)NCCC(=O)O)c5)c4)cccc32)c1C` (single isomer, unassigned) [Example 248]: 56 nM. The same measure for `Cc1cccc(OCCCC(=O)N2CCCc3c(-c4cnn(Cc5cccc(S(=O)(=O)NCCS(=O)(=O)O)c5)c4)cccc32)c1C` [Example 110T, 2-(3-((4-(1-(4-(2,3-Dimethylphenoxy)butanoyl)-1,2,3,4-tetrahydroquinolin-5-yl)-1H-pyrazol-1-yl)methyl)phenylsulfonamido) ethanesulfonic acid]: 609 nM; for `Cc1c(Cl)cccc1OCCCC(=O)N1CC2CC2c2c(-c3cnn(Cc4cccc(C(=O)NCS(=O)(=O)O)c4)c3)cccc21` (stereo not drawn) [Example 222, (3-((4-(3-(4-(3-Chloro-2-methylphenoxy)butanoyl)-1a,2,3,7b-tetrahydro-1H-cyclopropa[c]quinolin-7-yl)-1H-pyrazol-1-yl)methyl)benzamido)methanesulfonic acid]: 55 nM; for `Cc1cccc(OCCCC(=O)N2CCCc3c(-c4cnn(CCNC(=O)NCC(=O)O)c4)cccc32)c1C` [Example 110G, 2-(3-(2-(4-(1-(4-(2,3-Dimethylphenoxy)butanoyl)-1,2,3,4-tetrahydroquinolin-5-yl)-1H-pyrazol-1-yl)ethyl)ureido)acetic acid]: 3140 nM. Consider `Cc1cccc(OCCCC(=O)N2CCSc3c(-c4cnn(Cc5cccc(C(=O)NCCO)c5)c4)cccc32)c1C` [Example 600, 3-((4-(4-(4-(2,3-Dimethylphenoxy)butanoyl)-3,4-dihydro-2H-benzo[b][1,4]thiazin-8-yl)-1H-pyrazol-1-yl)methyl)-N-(2-hydroxyethyl) benzamide], for which the EC50 amounted to 42 nM.
